What all share (format): cell-based
Test [1] has as its target T1, NLRP3 (Homo sapiens, UniProt Q96P20). The test is described as follows: THP-1 cells pyroptosis assay. More on the design: Seed THP-1 cells (25,000 cells/well) containing 10 μg/ml LPS; host or cells: THP-1 cells. As to conditions: LPS primed, nigericin 5 μM, resazurin read-out. The procedure: Therefore, it is anticipated that inhibitors of NLRP3 will block pyroptosis, as well as the release of pro-inflammatory cytokines (e.g. IL-1B) from the cell.
On the day of the experiment, THP-1 cells were harvested and resuspended into RPMI medium (without FBS). The cells were then counted and viability (>90%) checked by Trypan blue (Sigma #T8154). […] To this diluted cell solution was added LPS (Sigma #L4524) to give a 1 μg/ml Final Assay Concentration (FAC). 40 μl of the final preparation was aliquoted into each well of a 96-well plate. The plate thus prepared was used for compound screening.
The following method step-by-step assay was followed for compound screening. • 1. […] Incubate for 3 hours at 37° C., 5% CO2 • 4. Add 5 μl nigericin (Sigma #N7143) (FAC 5 μM) to all wells • 5. Incubate for 1 hr at 37° C., 5% CO2 • 6. At the end of the incubation period, spin plates at 300 xg for 3 mins and remove supernatant • 7. […] IC50 data is fitted to a non-linear regression equation (log inhibitor vs response-variable slope 4-parameters)
A general note: The colour change of resazurin is a common sign of viable cells or microbes.

Test [2] has as its target T1, NLRP3. The test is described as follows: Human whole blood IL-1β release assay. Further details: Human whole blood in Li-heparin tubes was obtained from healthy donors; from tissue; host or cells: human whole blood from healthy donors. As to conditions: LPS 1 μg/ml, nigericin 10 μM, IL-1β by AlphaLisa.
Protocol: Human whole blood in Li-heparin tubes was obtained from healthy donors from a volunteer donor panel. • 1. […] Incubate for 3 hours at 37° C., 5% CO2 • 4. Add 10 μl nigericin (Sigma #N7143) (10 μM FAC) to all wells • 5. Incubate for 1 hr at 37° C., 5% CO2 • 6. At the end of the incubation period, spin plates at 300 xg for 5 mins to pellet cells and remove 20 μl of supernatant and add to 96-well v-bottom plates for IL-1β analysis (note: these plates containing the supernatants can be stored at −80° C. to be analysed at a later date) • 7. IL-1β was measured according to the manufacturer protocol (Perkin Elmer-AlphaLisa IL-1 Kit AL220F-5000) • 8. IC50 data is fitted to a non-linear regression equation (log inhibitor vs response-variable slope 4-parameters)
Test [3] addresses T2, hERG cardiac potassium channel (Homo sapiens, UniProt Q12809).
T2 construct: host or cells: CHO crelox hERG cell line (Chinese hamster)
The test is described as follows: hERG screening assay (automated patch clamp, CHO crelox hERG cells). The note with it: whole-cell patch clamp at 35-37° C. The procedure:
Ready-to-use frozen instant CHO-hERG cells were cryopreserved at Evotec (Germany) and used directly in the experiments.
The internal solution contains (in mM): KCl, 10; KF, 100; NaCl, 10; HEPES, 10; EGTA, 20; pH=7.0-7.4 with KOH, osmolarity 260-300 mOsm.
The effects of a compound on hERG K+-currents parameters will be evaluated at 2 concentrations in at least 4 cells.
K+ currents are measured with the patch-voltage-clamp technique in the whole-cell configuration at 35-37° C.
The amplitudes of IKhERG were recorded in each concentration of drug and they were compared to the vehicle control values (taken as 100%) to define fractional blocks. The concentration-response data were fitted with the following relationship:
Concentration-response curves were fitted by non-linear regression analysis using EworkBook suite (ID Business Solutions Ltd, UK). Data fit was done with the 4 Parameter Logistic Model (fit=(A+(B/(1+((x/C)^D)))), where A=0 and B=100).
In the drug development process of small molecules, one of the most frequent adverse side effects, leading to the failure of drugs, is the cardiac arrhythmias. Such failure is often related to the capacity of the drug to inhibit the human ether-à-go-go-related gene (hERG) cardiac potassium channel. Having no or low inhibition of the hERG cardiac potassium channel is therefore considered as beneficial.

pIC50: −log10 of the molar value.

T1 sequence (Q96P20 whole entry): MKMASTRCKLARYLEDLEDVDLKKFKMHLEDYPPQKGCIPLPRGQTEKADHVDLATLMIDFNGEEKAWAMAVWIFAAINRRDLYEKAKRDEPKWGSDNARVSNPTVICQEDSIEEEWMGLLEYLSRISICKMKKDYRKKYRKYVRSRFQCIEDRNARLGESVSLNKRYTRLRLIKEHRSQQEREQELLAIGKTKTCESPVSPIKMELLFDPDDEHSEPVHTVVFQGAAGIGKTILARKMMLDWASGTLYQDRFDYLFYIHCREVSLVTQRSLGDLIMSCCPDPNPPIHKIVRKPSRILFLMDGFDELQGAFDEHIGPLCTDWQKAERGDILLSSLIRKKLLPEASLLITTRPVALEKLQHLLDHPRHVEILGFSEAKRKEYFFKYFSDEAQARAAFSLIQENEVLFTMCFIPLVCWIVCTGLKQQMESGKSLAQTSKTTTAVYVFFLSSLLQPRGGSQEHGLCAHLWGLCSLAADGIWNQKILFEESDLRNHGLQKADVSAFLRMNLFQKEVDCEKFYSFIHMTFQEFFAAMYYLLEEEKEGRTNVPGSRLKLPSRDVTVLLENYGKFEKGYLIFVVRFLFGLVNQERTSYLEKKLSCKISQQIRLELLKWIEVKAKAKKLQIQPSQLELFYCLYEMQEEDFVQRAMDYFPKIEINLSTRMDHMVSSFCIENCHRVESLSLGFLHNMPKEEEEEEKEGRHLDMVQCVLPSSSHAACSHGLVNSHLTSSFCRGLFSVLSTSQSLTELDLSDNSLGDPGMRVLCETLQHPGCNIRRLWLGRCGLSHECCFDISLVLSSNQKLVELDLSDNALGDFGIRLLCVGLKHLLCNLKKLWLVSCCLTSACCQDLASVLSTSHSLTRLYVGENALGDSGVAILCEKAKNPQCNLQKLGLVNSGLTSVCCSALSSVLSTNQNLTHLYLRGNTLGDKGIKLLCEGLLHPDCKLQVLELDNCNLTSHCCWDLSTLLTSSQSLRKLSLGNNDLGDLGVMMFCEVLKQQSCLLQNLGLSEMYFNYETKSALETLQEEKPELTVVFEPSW
T2 sequence (Q12809 whole entry): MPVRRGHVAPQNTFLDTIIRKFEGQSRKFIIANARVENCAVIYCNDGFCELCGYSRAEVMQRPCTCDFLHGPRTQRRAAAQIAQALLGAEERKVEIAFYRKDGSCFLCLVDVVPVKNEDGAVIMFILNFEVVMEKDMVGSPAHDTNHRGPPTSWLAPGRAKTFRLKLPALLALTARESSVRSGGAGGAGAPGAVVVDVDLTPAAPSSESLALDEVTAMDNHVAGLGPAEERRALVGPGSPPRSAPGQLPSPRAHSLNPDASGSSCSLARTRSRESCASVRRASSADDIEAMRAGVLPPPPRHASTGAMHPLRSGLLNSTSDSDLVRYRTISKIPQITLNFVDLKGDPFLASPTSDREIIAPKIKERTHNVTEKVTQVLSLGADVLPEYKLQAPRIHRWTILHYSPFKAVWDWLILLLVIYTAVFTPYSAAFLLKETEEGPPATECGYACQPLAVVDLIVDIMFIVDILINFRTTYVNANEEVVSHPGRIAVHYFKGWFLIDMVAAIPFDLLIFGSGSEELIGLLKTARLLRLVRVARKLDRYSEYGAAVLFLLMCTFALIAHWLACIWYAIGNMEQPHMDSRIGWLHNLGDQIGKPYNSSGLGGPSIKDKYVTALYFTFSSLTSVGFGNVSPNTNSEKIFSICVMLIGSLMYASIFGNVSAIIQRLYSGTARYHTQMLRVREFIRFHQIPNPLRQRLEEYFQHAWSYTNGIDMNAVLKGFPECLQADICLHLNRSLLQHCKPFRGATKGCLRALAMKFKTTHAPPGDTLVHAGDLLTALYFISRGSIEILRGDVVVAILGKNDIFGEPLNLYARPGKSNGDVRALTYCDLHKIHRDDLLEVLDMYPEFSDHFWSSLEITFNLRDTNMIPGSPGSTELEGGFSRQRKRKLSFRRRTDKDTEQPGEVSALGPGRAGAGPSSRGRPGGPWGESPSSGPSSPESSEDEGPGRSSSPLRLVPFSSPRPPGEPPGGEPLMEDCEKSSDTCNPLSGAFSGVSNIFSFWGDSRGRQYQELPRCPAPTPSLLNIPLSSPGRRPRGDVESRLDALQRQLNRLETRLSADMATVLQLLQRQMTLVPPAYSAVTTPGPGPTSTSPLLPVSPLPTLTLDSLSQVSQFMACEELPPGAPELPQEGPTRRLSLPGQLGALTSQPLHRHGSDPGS

`CCN1CCC2CCN(c3ccc(-c4c(C)cc(C#N)cc4O)nn3)C2C1` (single isomer, unassigned) [Example 6A, 4-[6-[(3aS,7aR)-6-Ethyl-3,3a,4,5,7,7a-hexahydro-2H-pyrrolo[2,3-c]pyridin-1-yl]pyridazin-3-yl]-3-hydroxy-5-methyl-benzonitrile or 4-[6-[(3aR,7aS)-6-ethyl-3,3a,4,5,7,7a-hexahydro-2H-pyrrolo[2,3-c]pyridin-1-yl]pyridazin-3-yl]-3-hydroxy-5-methyl-benzonitrile]: the pIC50 in test [1] is 8.41; in test [2] it was 7.83.

In the case of `CCN1CCC2CCN(c3ccc(-c4c(C)cc(C#N)cc4O)nn3)C2C1` (single isomer, unassigned) [Example 6B, 4-[6-[(3aR,7aS)-6-Ethyl-3,3a,4,5,7,7a-hexahydro-2H-pyrrolo[2,3-c]pyridin-1-yl]pyridazin-3-yl]-3-hydroxy-5-methyl-benzonitrile or 4-[6-[(3aS,7aR)-6-ethyl-3,3a,4,5,7,7a-hexahydro-2H-pyrrolo[2,3-c]pyridin-1-yl]pyridazin-3-yl]-3-hydroxy-5-methyl-benzonitrile], the pIC50 in test [1] is 6.12.

Take `CCN1CCC[C@@H](Nc2cc(C)c(-c3ccc(C#N)cc3O)nn2)C1` [Example 1, 4-[6-[[(3R)-1-Ethyl-3-piperidyl]amino]-4-methyl-pyridazin-3-yl]-3-hydroxy-benzonitrile; formic acid]: the negative logarithm of the IC50 (pIC50) in test [1] was 8.51; in test [3] it was less than 4.70; in test [2] it was 8.49.

Consider `CCN1CCC[C@@H](Nc2cc(C(F)(F)F)c(-c3ccc(C#N)cc3O)nn2)C1` [Example 3, 4-[6-[[(3R)-1-Ethyl-3-piperidyl]amino]-4-(trifluoromethyl)pyridazin-3-yl]-3-hydroxy-benzonitrile], for which the negative logarithm of the IC50 (pIC50) in test [1] is 7.14; in test [2], 7.29.

For `Cc1cc(N[C@H]2C[C@@](C)(O)C2)nnc1-c1ccc(C#N)cc1O` [Example 4, 3-Hydroxy-4-[6-[(3-hydroxy-3-methyl-cyclobutyl)amino]-4-methyl-pyridazin-3-yl]benzonitrile], in test [1], the negative-log IC50 (pIC50) was 6.08.

In general, pIC50 refers to −log10 of the IC50, conventionally taken in molar units.

Values taken from patent US20240308977A1, “PYRIDAZINE DERIVATIVES AS INHIBITORS OF NLRP3” (Hoffmann-La Roche Inc., priority 2021, published 2024).
